Test system: relapsed-refractory multiple myeloma (RRMM) patients
Experiment: Safety in patients with RRMM, Example 2b, time point (bii)
Assay type: in vivo, human
Experimental: Example 2: An open label single arm extension on the dose of 40 mg over 30 minutes of Example 1. Intravenous melflufen was administered over 30 minutes on Day 1 of a 21-day cycle or 28-day cycle (in combination with 40 mg dexamethasone (oral or intravenous) treatment on Days 1, 8 and 15) for at least 2 cycles, and up to the stated number of cycles. The cycle length was extended during the Example 2 Clinical Trial from 21 to 28 days per a protocol amendment to allow for a better recovery of neutrophils and thrombocytes before a new cycle is initiated.
Dose reductions from 40 mg to 25 mg melflufen for patients in the trial was possible in connection with adverse effects of thrombocytopenia/neutropenia.
Example 2a results are from a data cut-off of time point (a). Example 2b results are from a data cut-off of time point (bi) for the efficacy data, which was approximately 12 months after time point (a); and from a data cut-off of time point (bii) for the safety data, which was approximately 10 months after time point (a).
By the data cut-off point for safety data (time point (bii)) 40 patients has been dosed with 183 doses of melflufen hydrochloride 40 mg over 30 minutes. A total of 11 patients had dose reductions from 40 mg to 25 mg melflufen during the study. All dose reductions were in connection with AEs of thrombocytopenia/neutropenia. Seven (7) patients (64%) had dose reductions in connection to thrombocytopenia, 3 patients to neutropenia (27%) and 1 patient (9%) to both thrombocytopenia and neutropenia.

[1] = 40 mg melflufen (+dex) treated patients
[2] = 40 mg treated patients, Example 2b
[3] = 40 mg, Example 2b N = 40, listed as melflufen hydrochloride
[4] = Cycle length 21 days, 30 patients, 87 cycles
[5] = Cycle length 28 days, 10 patients, 24 cycles
[6] = of the 11 patients with dose reductions
[7] = of the 40 safety evaluable patients

Q: Which “Grade 3 and 4 febrile neutropenia regardless of relationship” value [1] does the source give for `CCOC(=O)[C@H](Cc1ccc(F)cc1)NC(=O)[C@@H](N)Cc1ccc(N(CCCl)CCCl)cc1.Cl` [melflufen, L-Melphalanyl-4-fluoro-L-phenylalanine ethyl ester] here?
A: Its value is 5%.

Q: What about the “Grade 3 and 4 lower respiratory tract infection regardless of relationship” value [1] of the same compound?
A: Its value is 2%.

Q: What about the “Grade 3 and 4 lower respiratory tract infection regardless of relationship, n patients” value [1] of the same compound?
A: Its value is 1.

Q: And the “Grade 3 and 4 neutropenia regardless of relationship, n patients” value [1]?
A: The value was 23.

Q: And the “Grade 3 and 4 parainfluenza virus infection regardless of relationship” value [1]?
A: Its value is 2%.

Q: And the “Grade 3 and 4 parainfluenza virus infection regardless of relationship, n patients” value [1]?
A: The value was 1.

Q: And the “Grade 3 and 4 pneumonia regardless of relationship” value [1]?
A: The value was 10%.

Q: And the “Grade 3/4 hyperglycemia (reported as treatment-related to dexamethasone)” value [2]?
A: Its value is 10%.

Q: What about the “Grade 3/4 hyperglycemia (reported as treatment-related to dexamethasone), n patients” value [2] of the same compound?
A: Its value is 4.

Q: What about the “Serious TEAE related to melflufen: Diarrhoea” value (40 mg, Example 2b) of the same compound?
A: The value was “(5) %”.

Q: What about the “Serious TEAE related to melflufen: Diarrhoea, number of patients” value (40 mg, Example 2b) of the same compound?
A: Its value is 2.

Q: What about the “Serious TEAE related to melflufen: Escherichia coli sepsis” value (40 mg, Example 2b) of the same compound?
A: Its value is “(2.5) %”.

Q: And the “Serious TEAE related to melflufen: Escherichia coli sepsis, number of patients” value (40 mg, Example 2b)?
A: Its value is 1.

Q: What about the “Serious TEAE related to melflufen: Febrile Neutropenia” value (40 mg, Example 2b) of the same compound?
A: Its value is “(5) %”.

Q: And the “Serious TEAE related to melflufen: Febrile Neutropenia, number of patients” value (40 mg, Example 2b)?
A: The value was 2.

Q: And the “Serious TEAE related to melflufen: Neutropenia” value (40 mg, Example 2b)?
A: The value was “(5) %”.

Q: What about the “Serious TEAE related to melflufen: Neutropenia, number of patients” value (40 mg, Example 2b) of the same compound?
A: Its value is 2.

Q: And the “Serious TEAE related to melflufen: Pneumonia” value (40 mg, Example 2b)?
A: Its value is “(10) %”.

Q: What about the “Serious TEAE related to melflufen: Pneumonia, number of patients” value (40 mg, Example 2b) of the same compound?
A: Its value is 4.

Q: And the “Serious TEAE related to melflufen: Pyrexia” value (40 mg, Example 2b)?
A: The value was “(5) %”.

Q: And the “Serious TEAE related to melflufen: Pyrexia, number of patients” value (40 mg, Example 2b)?
A: The value was 2.

Q: What about the “anemia, all grades, regardless of relationship” value (40 mg, Example 2b) of the same compound?
A: The value was 65%.

Q: And the “asthenia, all grades, regardless of relationship” value (40 mg, Example 2b)?
A: The value was 35%.

Q: And the “diarrhoea, all grades, regardless of relationship” value (40 mg, Example 2b)?
A: The value was 25%.

Q: And the “nausea, all grades, regardless of relationship” value (40 mg, Example 2b)?
A: The value was 28%.

Q: What about the “neutropenia, all grades, regardless of relationship” value (40 mg, Example 2b) of the same compound?
A: The value was 65%.

Q: And the “pyrexia, all grades, regardless of relationship” value (40 mg, Example 2b)?
A: The value was 43%.

Q: What about the “thrombocytopenia, all grades, regardless of relationship” value (40 mg, Example 2b) of the same compound?
A: The value was 73%.

Q: And the “Anemia, treatment related ≥grade 3” value (40 mg, Example 2b N = 40)?
A: Its value is 43%.

Q: What about the “Any treatment-related grade 3 and/or grade 4, grade 4” value (40 mg, Example 2b N = 40) of the same compound?
A: Its value is “(50) %”.

Q: What about the “Any treatment-related grade 3 and/or grade 4, ≥grade 3” value (40 mg, Example 2b N = 40) of the same compound?
A: Its value is 85%.

Q: What about the “Asthenia, treatment related ≥grade 3” value (40 mg, Example 2b N = 40) of the same compound?
A: Its value is “(5) %”.

Q: And the “Blood and lymphatic system disorders, treatment related grade 4” value (40 mg, Example 2b N = 40)?
A: The value was “(50) %”.

Q: What about the “Blood and lymphatic system disorders, treatment related ≥grade 3” value (40 mg, Example 2b N = 40) of the same compound?
A: The value was “(82.5) %”.

Q: And the “Fatigue, treatment related ≥grade 3” value (40 mg, Example 2b N = 40)?
A: The value was “(5) %”.

Q: What about the “Febrile neutropenia, treatment related ≥grade 3” value (40 mg, Example 2b N = 40) of the same compound?
A: The value was “(5) %”.

Q: And the “General disorders and administration site conditions, treatment related ≥grade 3” value (40 mg, Example 2b N = 40)?
A: Its value is “(17.5) %”.

Q: And the “Hyperglycemia, treatment related grade 4” value (40 mg, Example 2b N = 40)?
A: Its value is “(3) %”.

Q: What about the “Hyperglycemia, treatment related ≥grade 3” value (40 mg, Example 2b N = 40) of the same compound?
A: The value was “(8) %”.

Q: And the “Infections and infestations, treatment related ≥grade 3” value (40 mg, Example 2b N = 40)?
A: The value was “(5) %”.

Q: And the “Investigations, treatment related ≥grade 3” value (40 mg, Example 2b N = 40)?
A: Its value is “(12.5) %”.

Q: What about the “Metabolism and nutrition disorders, treatment related grade 4” value (40 mg, Example 2b N = 40) of the same compound?
A: Its value is “(3) %”.

Q: What about the “Metabolism and nutrition disorders, treatment related ≥grade 3” value (40 mg, Example 2b N = 40) of the same compound?
A: Its value is “(8) %”.

Q: What about the “Neutropenia, treatment related grade 4” value (40 mg, Example 2b N = 40) of the same compound?
A: The value was “(30) %”.

Q: And the “Neutropenia, treatment related ≥grade 3” value (40 mg, Example 2b N = 40)?
A: The value was 58%.

Q: What about the “Neutrophil count decreased, treatment related ≥grade 3” value (40 mg, Example 2b N = 40) of the same compound?
A: Its value is “(10) %”.

Q: And the “Pneumonia, treatment related ≥grade 3” value (40 mg, Example 2b N = 40)?
A: Its value is “(5) %”.

Q: What about the “Pyrexia, treatment related ≥grade 3” value (40 mg, Example 2b N = 40) of the same compound?
A: Its value is “(5) %”.

Q: And the “Thrombocytopenia, treatment related grade 4” value (40 mg, Example 2b N = 40)?
A: Its value is “(40) %”.

Q: What about the “Thrombocytopenia, treatment related ≥grade 3” value (40 mg, Example 2b N = 40) of the same compound?
A: The value was 63%.

Q: What about the “White blood cell count decreased, treatment related ≥grade 3” value (40 mg, Example 2b N = 40) of the same compound?
A: The value was “(5) %”.

Q: And the “Anemia, treatment related ≥grade 3” value [3]?
A: Its value is “(43) %”.

Q: And the “Any treatment-related grade 3 and/or grade 4, ≥grade 3” value [3]?
A: Its value is “(85) %”.

Q: What about the “Neutropenia, treatment related ≥grade 3” value [3] of the same compound?
A: The value was “(57.5) %”.

Q: And the “Thrombocytopenia, treatment related ≥grade 3” value [3]?
A: Its value is “(62.5) %”.

Q: What about the “patients with Serious TEAEs” value (40 mg, Example 2b, 40 patients) of the same compound?
A: The value was 40%.

Q: What about the “patients with treatment-related Serious TEAEs” value (40 mg, Example 2b, 40 patients) of the same compound?
A: The value was 30%.

Q: And the “median number of cycles before discontinuation due to bone marrow suppression” value (14 patients)?
A: Its value is 3.5 cycles.

Q: What about the “Cycles with a dose interruption” value [4] of the same compound?
A: Its value is “(37) % of total”.

Q: What about the “Patients with a dose interruption” value [4] of the same compound?
A: Its value is “(57) % of total”.

Q: And the “Patients with a dose reduction” value [4]?
A: The value was “(37) % of total”.

Q: And the “Cycles with a dose interruption” value [5]?
A: The value was “(13) % of total”.

Q: What about the “Patients with a dose interruption” value [5] of the same compound?
A: The value was “(30) % of total”.

Q: What about the “Patients with a dose reduction” value [5] of the same compound?
A: Its value is “(20) % of total”.

Q: What about the “incidence of Grade 3-4 pneumonia” value (Example 2b) of the same compound?
A: Its value is 14%.

Q: What about the “infectious adverse effects with fatal outcomes possibly related to the study treatments” value (Example 2b) of the same compound?
A: Its value is 8%.

Q: And the “infectious adverse effects with fatal outcomes possibly related to the study treatments, n patients” value (Example 2b)?
A: Its value is 3.

Q: What about the “patients with TEAEs leading to dose reduction of melflufen from 40 mg to 25 mg” value (Example 2b, 40 patients) of the same compound?
A: The value was 32.5%.

Q: And the “effect on renal function” value (MM patients, clinical trials)?
A: Its value is “does not appear to have any effect on renal function”.

Q: And the “reports of syncope, seizures, ventricular arrhythmias, ventricular tachycardia, ventricular fibrillation, flutter, torsade de pointes, or sudden deaths” value (in the clinical trials)?
A: The value was “no reports”.

Q: What about the “dose reductions in connection to both thrombocytopenia and neutropenia” value [6] of the same compound?
A: Its value is 9%.

Q: And the “dose reductions in connection to both thrombocytopenia and neutropenia, n patients” value [6]?
A: The value was 1.

Q: What about the “dose reductions in connection to neutropenia” value [6] of the same compound?
A: The value was 27%.

Q: And the “dose reductions in connection to neutropenia, n patients” value [6]?
A: The value was 3.

Q: And the “dose reductions in connection to thrombocytopenia” value [6]?
A: Its value is 64%.

Q: And the “dose reductions in connection to thrombocytopenia, n patients” value [6]?
A: Its value is 7.

Q: What about the “treatment discontinuations due to treatment-related bone marrow suppression” value [7] of the same compound?
A: Its value is 35%.

Q: What about the “treatment discontinuations due to treatment-related bone marrow suppression, n patients” value [7] of the same compound?
A: The value was 14.

Q: What about the “fatal events while on treatment or within 30 days of last dose, n patients” value (of the 57 patients in the ongoing melflufen study) of the same compound?
A: Its value is 6.

Source: patent US20220047507A1, “MELFLUFEN DOSAGE REGIMENS FOR CANCER” (ONCOPEPTIDES AB, priority 2015, published 2022)
